Assay results published in US20030157205A1, “Inhibitory and preventative effects of processed morinda citrifolia on mutagenesis and carcinogenesis in mammals” (priority 2001, published 2003).

System: mammary gland carcinogenesis induced by 17 β-estradiol (E2)
Experiment: Estrogen (E2 pellet)-induced mammary carcinogenesis in female ACI rats
Format: in vivo
Settings: for survival rate: control 100%, placebo 0%
Text: This study indicates the preventative effects of Methyl Sulfonyl Methane (MSM), processed Morinda citrifolia products (e.g., Tahitian Noni juice), and their combination on estrogen-induced mammary carcinogenesis in female ACI rats.
In the study, the preventative effects of MSM, Morinda citrifolia, and their combination on mammary gland carcinogenesis induced by 17 β-estradiol (estrogen)(E2) pellet implants in female ACI rats was studied. In the experiment, sixty (60), five week old female rats were divided into four groups, fifteen (15) rats each, and placed on regular diets. Another eight (8) female ACI rats were served as the age-matched controls. Five percent placebo, five percent Morinda citrifolia, five percent MSM, a combination of five percent Morinda citrifolia and MSM in drinking water was supplied to the animals in different groups until ninety days after E2 implantation. Two weeks later, all animals were implanted subcutaneously with a 25 mg pellet containing 22.5 mg of 17 β-estradiol (e2) mixed with 2.5 mg cholesterol, and the age-matched control animals received a 25 mg cholesterol pellet implant.

## CS(C)(=O)=O [MSM, Methyl Sulfonyl Methane]
5% in drinking water, E2-implanted female ACI rats, placebo group had significant loss vs cholesterol control
  body weight loss: slight body weight loss
5% in drinking water, E2 implant, placebo group one hundred percent
  percent of the rats with mammary tumors: fifty-seven
5% in drinking water, E2 implant, placebo group three to seven
  number of tumors per rat: one to four
160 days after E2 implantation
  survival rate: 73%
180 days after E2 implantation
  survival rate: 20%
180 days after E2 implantation, placebo 17
  average tumor area: 12 mm2
200 days after E2 implantation
  survival rate: 0%
